Test results taken from the supplement of paper PMC4862054.

test system: DU-4475; experiment: normalised response (% of control), CellTox Green; higher = less cell death (100 = DMSO, 0 = benzethonium chloride kill control); conditions: incubation time: 72 h
Method in brief: (§1)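 In 384-well plates holding compound at 5 concentrations in 10-fold steps over a 10,000-fold range specific to each compound, breast cancer cell lines were seeded as 20 µl suspension and incubated 72 h. CellTox Green fluorescence was measured at 485/520 nm, after which CellTiter-Glo luminescence was measured following 10 min at room temperature. Plate signals were normalised to 0.1 % DMSO (100) and a positive kill control (0), and each value is the normalised signal at a single concentration.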

How did the normalised response turn out when Cc1c(Cn2c(C)nc3c(C(=O)O)cc(N4CCOCC4)cc32)cccc1C(F)(F)F (1000 nM) was run?
The normalised response was 111%.

CCCCC/C=C/C=C1/C(=O)C=C[C@@H]1C/C=C\CCCC(=O)O [15D-PGJ2] (80 nM) was tested. Which normalised response did it give?
The normalised response was 110%.

How did the normalised response turn out when CS(=O)(=O)N1CCN(Cc2cc3nc(-c4cccc5[nH]ncc45)nc(N4CCOCC4)c3s2)CC1 [Pictilisib] (1000 nM) was run?
The normalised response was 98.3%.

Which normalised response does the source give for c1cc(CN2CCCNCCNCCCNCC2)ccc1CN1CCCNCCNCCCNCC1 [Plerixafor] (1000 nM) here?
Its normalised response is 91.8%.

CC(C)N(CCCNC(=O)Nc1ccc(C(C)(C)C)cc1)C[C@H]1O[C@@H](n2cc(Br)c3c(N)ncnc32)[C@H](O)[C@@H]1O [SGC0946] (1000 nM) was tested. Which normalised response did it give?
Its normalised response is 95.8%.

test system: MDA-MB-231; experiment: as above; conditions: incubation time: 72 h
Method in brief: as §1

With Cc1c(Cn2c(C)nc3c(C(=O)O)cc(N4CCOCC4)cc32)cccc1C(F)(F)F (1000 nM) as the molecule, how does the normalised response read?
Its normalised response is 107%.

CCCCC/C=C/C=C1/C(=O)C=C[C@@H]1C/C=C\CCCC(=O)O [15D-PGJ2] (80 nM) was tested. Which normalised response did it give?
The normalised response was 86.6%.

With CS(=O)(=O)N1CCN(Cc2cc3nc(-c4cccc5[nH]ncc45)nc(N4CCOCC4)c3s2)CC1 [Pictilisib] (1000 nM) as the molecule, how does the normalised response read?
The normalised response was 99.3%.

For c1cc(CN2CCCNCCNCCCNCC2)ccc1CN1CCCNCCNCCCNCC1 [Plerixafor] (1000 nM), which normalised response is on record?
The normalised response was 82.7%.

For CC(C)N(CCCNC(=O)Nc1ccc(C(C)(C)C)cc1)C[C@H]1O[C@@H](n2cc(Br)c3c(N)ncnc32)[C@H](O)[C@@H]1O [SGC0946] (1000 nM), which normalised response is on record?
Its normalised response is 101%.

test system: CAL-85-1; experiment: as above; conditions: incubation time: 72 h
Method in brief: as §1

For Cc1c(Cn2c(C)nc3c(C(=O)O)cc(N4CCOCC4)cc32)cccc1C(F)(F)F (1000 nM), which normalised response is on record?
Its normalised response is 104%.

How did the normalised response turn out when CCCCC/C=C/C=C1/C(=O)C=C[C@@H]1C/C=C\CCCC(=O)O [15D-PGJ2] (80 nM) was run?
Its normalised response is 125%.

For c1cc(CN2CCCNCCNCCCNCC2)ccc1CN1CCCNCCNCCCNCC1 [Plerixafor] (1000 nM), which normalised response is on record?
The normalised response was 105%.

With CC(C)N(CCCNC(=O)Nc1ccc(C(C)(C)C)cc1)C[C@H]1O[C@@H](n2cc(Br)c3c(N)ncnc32)[C@H](O)[C@@H]1O [SGC0946] (1000 nM) as the molecule, how does the normalised response read?
The normalised response was 96.3%.

test system: HDQ-P1; experiment: as above; conditions: incubation time: 72 h
Method in brief: as §1

Cc1c(Cn2c(C)nc3c(C(=O)O)cc(N4CCOCC4)cc32)cccc1C(F)(F)F (1000 nM) was tested. Which normalised response did it give?
Its normalised response is 115%.

How did the normalised response turn out when CCCCC/C=C/C=C1/C(=O)C=C[C@@H]1C/C=C\CCCC(=O)O [15D-PGJ2] (80 nM) was run?
The normalised response was 111%.

With CS(=O)(=O)N1CCN(Cc2cc3nc(-c4cccc5[nH]ncc45)nc(N4CCOCC4)c3s2)CC1 [Pictilisib] (1000 nM) as the molecule, how does the normalised response read?
The normalised response was 87.1%.

For c1cc(CN2CCCNCCNCCCNCC2)ccc1CN1CCCNCCNCCCNCC1 [Plerixafor] (1000 nM), which normalised response is on record?
The normalised response was 58.5%.

With CC(C)N(CCCNC(=O)Nc1ccc(C(C)(C)C)cc1)C[C@H]1O[C@@H](n2cc(Br)c3c(N)ncnc32)[C@H](O)[C@@H]1O [SGC0946] (1000 nM) as the molecule, how does the normalised response read?
Its normalised response is 103%.

test system: MDA-MB-453; experiment: as above; conditions: incubation time: 72 h
Method in brief: as §1

For Cc1c(Cn2c(C)nc3c(C(=O)O)cc(N4CCOCC4)cc32)cccc1C(F)(F)F (1000 nM), which normalised response is on record?
The normalised response was 112%.

For CCCCC/C=C/C=C1/C(=O)C=C[C@@H]1C/C=C\CCCC(=O)O [15D-PGJ2] (80 nM), which normalised response is on record?
The normalised response was 113%.

For CS(=O)(=O)N1CCN(Cc2cc3nc(-c4cccc5[nH]ncc45)nc(N4CCOCC4)c3s2)CC1 [Pictilisib] (1000 nM), which normalised response is on record?
Its normalised response is 96.7%.

Which normalised response does the source give for c1cc(CN2CCCNCCNCCCNCC2)ccc1CN1CCCNCCNCCCNCC1 [Plerixafor] (1000 nM) here?
Its normalised response is 99%.

CC(C)N(CCCNC(=O)Nc1ccc(C(C)(C)C)cc1)C[C@H]1O[C@@H](n2cc(Br)c3c(N)ncnc32)[C@H](O)[C@@H]1O [SGC0946] (1000 nM) was tested. Which normalised response did it give?
Its normalised response is 105%.

test system: HCC1143; experiment: as above; conditions: incubation time: 72 h
Method in brief: as §1

For Cc1c(Cn2c(C)nc3c(C(=O)O)cc(N4CCOCC4)cc32)cccc1C(F)(F)F (1000 nM), which normalised response is on record?
Its normalised response is 119%.

With CCCCC/C=C/C=C1/C(=O)C=C[C@@H]1C/C=C\CCCC(=O)O [15D-PGJ2] (80 nM) as the molecule, how does the normalised response read?
Its normalised response is 82.5%.

CS(=O)(=O)N1CCN(Cc2cc3nc(-c4cccc5[nH]ncc45)nc(N4CCOCC4)c3s2)CC1 [Pictilisib] (1000 nM) was tested. Which normalised response did it give?
Its normalised response is 62.9%.

test system: HCC1599; experiment: as above; conditions: incubation time: 72 h
Method in brief: as §1

With Cc1c(Cn2c(C)nc3c(C(=O)O)cc(N4CCOCC4)cc32)cccc1C(F)(F)F (1000 nM) as the molecule, how does the normalised response read?
The normalised response was 92.3%.

How did the normalised response turn out when CCCCC/C=C/C=C1/C(=O)C=C[C@@H]1C/C=C\CCCC(=O)O [15D-PGJ2] (80 nM) was run?
Its normalised response is 109%.

How did the normalised response turn out when CS(=O)(=O)N1CCN(Cc2cc3nc(-c4cccc5[nH]ncc45)nc(N4CCOCC4)c3s2)CC1 [Pictilisib] (1000 nM) was run?
The normalised response was 103%.

With c1cc(CN2CCCNCCNCCCNCC2)ccc1CN1CCCNCCNCCCNCC1 [Plerixafor] (1000 nM) as the molecule, how does the normalised response read?
Its normalised response is 88.8%.

Which normalised response does the source give for CC(C)N(CCCNC(=O)Nc1ccc(C(C)(C)C)cc1)C[C@H]1O[C@@H](n2cc(Br)c3c(N)ncnc32)[C@H](O)[C@@H]1O [SGC0946] (1000 nM) here?
The normalised response was 91.8%.

test system: BT-549; experiment: as above; conditions: incubation time: 72 h
Method in brief: as §1

Cc1c(Cn2c(C)nc3c(C(=O)O)cc(N4CCOCC4)cc32)cccc1C(F)(F)F (1000 nM) was tested. Which normalised response did it give?
The normalised response was 111%.

With CCCCC/C=C/C=C1/C(=O)C=C[C@@H]1C/C=C\CCCC(=O)O [15D-PGJ2] (80 nM) as the molecule, how does the normalised response read?
The normalised response was 105%.

Which normalised response does the source give for CS(=O)(=O)N1CCN(Cc2cc3nc(-c4cccc5[nH]ncc45)nc(N4CCOCC4)c3s2)CC1 [Pictilisib] (1000 nM) here?
Its normalised response is 125%.

How did the normalised response turn out when c1cc(CN2CCCNCCNCCCNCC2)ccc1CN1CCCNCCNCCCNCC1 [Plerixafor] (1000 nM) was run?
The normalised response was 107%.

CC(C)N(CCCNC(=O)Nc1ccc(C(C)(C)C)cc1)C[C@H]1O[C@@H](n2cc(Br)c3c(N)ncnc32)[C@H](O)[C@@H]1O [SGC0946] (1000 nM) was tested. Which normalised response did it give?
The normalised response was 99.9%.
